Assay results published in the NIST ThermoML archive (doi:10.1016/j.jct.2008.01.018).
Numbers after ± are expanded uncertainties.

Assay: mn = molality of the nth substance listed, in mol/kg
Conditions: 101 kPa, Liquid; for speed of sound: Sing-around technique in a fixed-path interferometer

O=P([O-])(O)O.[Na+] [sodium dihydrogen phosphate] + O
Conditions	mass density, 283.15 K [kg/m3]	mass density, 288.15 K [kg/m3]	mass density, 293.15 K [kg/m3]	speed of sound, 283.15 K [m/s]	speed of sound, 288.15 K [m/s]	speed of sound, 293.15 K [m/s]
m1 = 0.0343	1002.89 ± 0.16	1002.25 ± 0.16	1001.32 ± 0.16	1451.8 ± 0.72	1470 ± 0.73	1486 ± 0.74
m1 = 0.0484	1004.16 ± 0.16	1003.5 ± 0.15	1002.56 ± 0.15	1453.5 ± 0.73	1471.6 ± 0.73	1487.6 ± 0.74
m1 = 0.1399	1012.4 ± 0.17	1011.65 ± 0.17	1010.62 ± 0.17	1463.6 ± 0.73	1481.2 ± 0.74	1496.9 ± 0.74
m1 = 0.167	1014.82 ± 0.17	1014.03 ± 0.17	1012.98 ± 0.17	1466.5 ± 0.73	1484.1 ± 0.74	1499.7 ± 0.74
m1 = 0.1967	1017.47 ± 0.18	1016.66 ± 0.18	1015.58 ± 0.17	1469.7 ± 0.73	1487.2 ± 0.74	1502.7 ± 0.75
m1 = 0.2231	1019.84 ± 0.18	1019 ± 0.18	1017.9 ± 0.18	1472.6 ± 0.73	1490 ± 0.74	1505.3 ± 0.75
m1 = 0.2506	1022.23 ± 0.18	1021.37 ± 0.18	1020.25 ± 0.18	1475.5 ± 0.74	1492.8 ± 0.74	1508 ± 0.75
m1 = 0.3229	1028.59 ± 0.19	1027.65 ± 0.19	1026.47 ± 0.19	1483.2 ± 0.74	1500.2 ± 0.75	1515.1 ± 0.75
m1 = 0.3586	1031.67 ± 0.2	1030.7 ± 0.19	1029.5 ± 0.19	1486.9 ± 0.74	1503.7 ± 0.75	1518.5 ± 0.75
m1 = 0.4346	1038.07 ± 0.2	1037.04 ± 0.2	1035.78 ± 0.2	1494.7 ± 0.74	1511.1 ± 0.75	1525.6 ± 0.76
m1 = 0.5108	1044.45 ± 0.21	1043.36 ± 0.21	1042.04 ± 0.21	1502.2 ± 0.75	1518.4 ± 0.75	1532.6 ± 0.76
m1 = 0.5812	1050.36 ± 0.22	1049.21 ± 0.22	–	1509.2 ± 0.75	1525.2 ± 0.76	1539.1 ± 0.76
m1 = 0.6658	1057.33 ± 0.23	1056.12 ± 0.23	–	1517.5 ± 0.75	1533.1 ± 0.76	1546.8 ± 0.77
m1 = 0.7462	1063.82 ± 0.24	1062.54 ± 0.24	–	1525.3 ± 0.76	1540.5 ± 0.76	1553.9 ± 0.77
m1 = 0.9163	1077.42 ± 0.26	1076.03 ± 0.26	–	1541.5 ± 0.76	1556.1 ± 0.77	1568.9 ± 0.78
m1 = 1.093	1091.46 ± 0.28	1089.96 ± 0.28	–	1558.4 ± 0.77	1572.3 ± 0.78	1584.3 ± 0.78
m1 = 1.262	1104.21 ± 0.3	1102.62 ± 0.3	–	1573.7 ± 0.78	1587 ± 0.78	1598.5 ± 0.79
m1 = 1.451	1117.95 ± 0.32	1116.26 ± 0.32	–	1590.5 ± 0.79	1602.9 ± 0.79	1613.8 ± 0.8
m1 = 1.758	1139.71 ± 0.36	1137.89 ± 0.35	–	1617 ± 0.8	1628.3 ± 0.81	1638.1 ± 0.81
m1 = 2.041	1159.21 ± 0.39	1157.28 ± 0.38	–	1641.2 ± 0.82	1651.4 ± 0.82	1660.2 ± 0.82
m1 = 2.374	1181.48 ± 0.42	1179.42 ± 0.42	–	1669.2 ± 0.83	1678.2 ± 0.83	1685.9 ± 0.84
m1 = 2.747	1205.29 ± 0.46	1203.12 ± 0.46	–	1699.5 ± 0.85	1707.2 ± 0.85	1713.7 ± 0.85
m1 = 3.115	1226.77 ± 0.49	1224.51 ± 0.49	–	1727.2 ± 0.87	1733.6 ± 0.87	1739 ± 0.87
m1 = 3.512	1250.32 ± 0.53	1247.97 ± 0.53	–	1758.2 ± 0.89	1763.3 ± 0.89	1767.4 ± 0.89
